Assays:
Ldlr−/− mice = assay: AMLN diet-induced fatty liver model: liver tissue section analysis; type: in vivo; details: 30 mg/kg/day, 8 weeks
Description: Hematoxylin-eosin staining: The extracted liver was fixed in 4% paraformaldehyde at 4° C., embedded in paraffin, sectioned using a paraffin microtome (Leica RM2235) with a section thickness of […], dewaxed, rehydrated, and stained with Hematoxylin-eosin staining kits ([…]. 6,765,001, 6,766,010, Thermo Scientific). The images were captured with an Olympus VS 120 glass microscope, and quantified using ImageJ software. Oil Red 0 staining: The liver was embedded in OCT embedding medium (Leica), sectioned to a thickness of 7 μm using a cryostat microtome (Leica CM1950), stained with Oil Red 0 (00625, Sigma). The images were captured with an Olympus VS 120 glass microscope, and quantified using ImageJ software. Sirius Red collagen staining: Liver paraffin sections were dewaxed, rehydrated, and stained with Sirius Red staining kit (ab150681, Abcam) according to the manufacturer's instructions. Immunofluorescence staining: The liver was embedded in OCT embedding medium (Leica) and sectioned to a thickness of 7 μm using a cryostat microtome (Leica CM1950). Cryostat sections were stained with anti-F4/80 rat monoclonal antibody (14-4801-85, Invitrogen, 1:100) and Alexa Fluor 488-conjugated goat anti-rat IgG secondary antibody (A-11006, Invitrogen, 1:500), and the nuclei were specifically stained with DAPI (Sigma) 30. After staining and sealing, the images were captured using a spinning disk confocal microscope (Nikon CSU-W1 SoRa), and quantified using ImageJ software. Polarized light imaging of cholesterol crystals: Cryostat sections were stained with F4/80 and DAPI. The images were captured using a spinning disk confocal microscope (Nikon CSU-W1 SoRa) equipped with a polarized light filter, and quantified using ImageJ software. Male C57BL/6J mice and male Ldlr^−/− mice (TOO1464, Jiangsu GemPharmatech Co., Ltd.) at 8 weeks of age were purchased, grouped, fed with different diets, and treated with different drugs. The mice were randomly divided into 4 groups with 8 to 9 mice in each group: One group consisted of C57BL/6J wild-type mice, which was the chow diet (CD) vehicle control group. The other three groups consisted of Ldlr^−/− knockout mice, including chow diet (CD) vehicle control group, AMLN diet (containing […], 22% fructose, and 2% cholesterol) vehicle control group, and AMLN diet combined with 25-hydroxylanosterol administration group (25-hydroxylano sterol was administered at a concentration of 30 mg/kg/day). The mice in four groups were intragastrically administered once a day, during which the changes in food intake and body weight of the mice in different treatment groups were counted. After 8 weeks, blood and liver samples were collected from the mice to analyze blood lipids, liver lipids, and liver damage phenotypes. Furthermore, we performed various staining or immunohistochemical procedures on liver tissue sections from the mice in each group to analyze the phenotypic changes in hepatic lipid accumulation and fatty liver. […] FIGS. 14 to 18 show the results of Oil Red O staining and quantification of liver sections of mice: 25-hydroxylanosterol reduced lipid droplets in the liver. FIGS. 19 to 23 show the results of Sirius Red staining and quantification of liver sections of mice: 25-hydroxylanosterol reduced fibrosis in the liver. FIGS. 24 to 29 show the results of F4/80 immunostaining and quantification of liver sections of mice as well as the results of imaging and quantification of polarized light imaging indicating cholesterol crystals: 25-hydroxylanosterol reduced the aggregation of Kupffer cells and formation of cholesterol crystals in the liver. In FIGS. 9 to 29, quantitative analysis was performed using ImageJ software, and data are represented as mean±standard deviation. P values were calculated using one-way ANOVA; * indicates P<0.05; ** indicates P<0.01; *** indicates P<0.001.

[1] = Liver microsomal metabolic stability assay; type: in vitro ADME; details: rat liver microsomes, NADPH, 37° C., 0-60 minutes; read-out: Rat microsomal metabolic half-life (t1/2)
Description: PBS solution (100 mM), MgCl2 solution (100 mM), and NADPH solution (20 mM) were prepared respectively. Compound and testosterone (positive control) stock solutions were then prepared with dimethyl sulfoxide (DMSO), diluted to 100 µM with methanol for sample incubation, and stored at −10 to −30° C. 12.5 μL of rat liver microsomes (purchased from XenoTech, Cat. No.: R1000, Lot No.: 1310030, specification: 20 mg/mL), 432.5 µL of PBS solution (100 mM), 25 µL of NADPH solution (20 mM), and 25 μL of MgCl2 solution (100 mM) were added to a 96-well plate, mixed well, and pre-incubated at 37° C. for 5 minutes. 5 µL of substrate (test compound) solution was added to start the reaction. At specified time points of 0, 5, 15, 30, 45, and 60 minutes (0 and 60 minutes for the negative control group), 50 µL of the incubated samples were added to a stop plate containing 100 µL of ice-cold stop solution, vortexed for 1 minute to inactivate the reaction, and stored at −60 to −90° C. for subsequent analysis. Sample analysis of the test compound and the control compound testosterone was performed using LC-MS/MS method. Chromatographic peaks were integrated, calculated, and processed using Analyst software. Semi-quantitative analysis was performed for both the test compound and the control compound testosterone by calculating peak area ratios.

C[C@H](CCCC(C)(C)O)[C@H]1CC[C@@]2(C)C3=C(CC[C@]12C)[C@@]1(C)CC[C@H](O)C(C)(C)[C@@H]1CC3 [compound 68, (1R,3aR,5aR,7S,9aS,11aR)-1-[(2R)-6-hydroxy-6-methylheptan-2-yl]-3a,6,6,9a,11a-pentamethyl-2,3,3a,4,5,5a,6,7,8,9,9a,10,11,11a-tetradecahydro-1H-cyclopenta[1,2-a]phenanthren-7-ol]
significantly reduced: crown-like structure formed by Kupffer cells (F4/80 immunostaining) (Ldlr−/− mice) | fibrotic phenotype of collagen fiber formation in liver sections (Sirius Red) (Ldlr−/− mice) | number of cholesterol crystals in liver sections (polarized light imaging) (Ldlr−/− mice) | accumulation of lipid droplets of neutral lipids in the liver (Oil Red O staining) (Ldlr−/− mice; vs control group) | macrovesicular lipid droplets and vesicular degenerated hepatocytes in the liver (HE staining) (Ldlr−/− mice; vs control group) | NAFLD activity scores (Ldlr−/− mice; HE staining of liver sections)
8.36 min: half-life at 1 µM [1]

— US20250154193A1, “STEROID COMPOUND, AND PREPARATION METHOD THEREFOR AND APPLICATION THEREOF” (CHOLESGEN (SHANGHAI) CO., LTD., priority 2022, published 2025)
